The results in this text go back to patent US20250122239A1 (K BENHAVNS UNIVERSITET, published 2025).

For one test, the system named is lean mice. Put plainly: food intake in chow fed lean mice, shortened GLP-1-NT combination peptides (Example 9). In kind it is in vivo. The following applies: 100 nmol/kg, single SC injection, chow fed lean mice fasted overnight. As for the experimental part: Chow fed lean mice fasted overnight were injected once SC in the beginning of the light cycle and food returned. Food intake measured continuously after injection in an indirect calorimetry system. Food intake was analysed using repeated measures two-way ANOVA followed by a Tukey's post hoc test.

In test [1] the target is human neurotensin receptor NTSR1 (pCMVhNTSR 1, transiently expressed in HEK293 cells) (human, UniProt P30989 1-418). Put plainly: cell-based or functional assay.
human neurotensin receptor NTSR1 (pCMVhNTSR 1, transiently expressed in HEK293 cells), sequence (P30989 whole entry): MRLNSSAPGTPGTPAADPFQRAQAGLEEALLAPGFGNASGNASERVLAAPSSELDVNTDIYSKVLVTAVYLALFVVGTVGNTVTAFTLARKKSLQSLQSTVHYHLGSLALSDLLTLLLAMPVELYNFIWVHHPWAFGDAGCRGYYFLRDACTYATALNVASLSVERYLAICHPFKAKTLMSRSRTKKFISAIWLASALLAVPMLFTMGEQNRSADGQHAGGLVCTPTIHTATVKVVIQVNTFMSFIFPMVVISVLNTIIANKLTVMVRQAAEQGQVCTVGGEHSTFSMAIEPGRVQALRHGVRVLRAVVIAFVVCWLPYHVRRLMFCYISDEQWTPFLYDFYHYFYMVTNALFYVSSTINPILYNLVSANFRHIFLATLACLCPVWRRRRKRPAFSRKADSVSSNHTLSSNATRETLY

Ends that are not written are not given here.

On to “HAEFTFTSDVSSYLEGQKKGGELYENKPRRPYIL-acid (HAEFTFTSDVSSYLEGQKKGGELYENKPRRPYIL-OH) [Peptide 10]”, for which the “food intake in comparison to saline” value with lean mice is “p<0.001 peptide 10 vs. saline”.
Consider “HAEGTFTSDVSSYLEGQELYENKPRRPYIL-acid (HAEGTFTSDVSSYLEGQELYENKPRRPYIL-OH) [Peptide 9]”, for which the “food intake in comparison to saline” value with lean mice was “p<0.05 peptide 9 vs. saline”.
On to HAEGTFTSDVSSYLEGQAAKEFIAWLVKGRLYENKPRRPYIL [GLP-1/NT fusion peptide (SEQ ID NO: 45)], for which the “inositol phosphate (IP) accumulation, LogEC50” value in test [1] was -8.5.
